Assay results published in US5079358A, “6H-pyrazolo-[4,5,1-d,e]acridin-6-one derivatives having anit-tumor activity” (Kyowa Hakko Kogyo Co., Ltd., priority 1988, dated 1992).
≈ marks a conversion by molar mass, not a printed value.

System: P388 ascites tumor
Experiment: Effect on P388 ascites tumor (increased life span)
Format: in vivo
Conditions: P388, ip; dose 12.5 mg/kg, intraperitoneal, 24 hours after implantation, male CDF1 mouse
Experimental: Effect on P388 ascites tumor:
P388 tumor cells (10^6 cells) were implanted intraperitoneally into a DBA/2 mouse and the cells were collected from the ascitic fluid of the animal 7 days after the implantation. The cells were ashed once with sterilized physiological saline solution and then suspended in a sterilized physiological saline solution to prepare a cell suspension containing 5×10^6 cells/ml. The suspension (0.2 ml) was intraperitoneally inoculated into a male CDF1 mouse aged 6 weeks. A test compound was dissolved in physiological saline solution and intraperitoneally administered to the animal 24 hours after implantation of the tumor cells. One test group comprised 5 mice. The mean survival time (days) of a test group which received a test compound at a specified concentration was calculated as T from survival days of animals in the group. ON the other hand, the mean survival time (days) of the non-administered group (C) was obtained in the same manner, and the increased life span (ILS %) was calculated as [(T-C)/C]×100 (%).

Compound	ILS at 12.5 mg/kg
NCCCNCc1nn2c3cccc(O)c3c(=O)c3c(NCCCN)ccc1c32 [Compound 29, 5-(3-Aminopropyl)amino-2-(3-aminopropyl)aminomethyl-7-hydroxy-6H-pyrazolo[4,5,1-d,e]acridin-6-one]	> 121%
NCCNc1ccc2c(CNCCSCCO)nn3c4cccc(O)c4c(=O)c1c23 [Compound 59, 5-(2-Aminoethyl)amino-7-hydroxy-2-[2-(2-hydroxyethylthio)ethyl]aminomethyl-6H-pyrazolo[4,5,1-d,e]acridin-6-one]	> 134%
O=c1c2c(O)cccc2n2nc(CNCCOCCO)c3ccc(NCCNCCO)c1c32 [Compound 66, 7-Hydroxy-5-[2-(2-hydroxyethylamino)ethyl]amino-2-[2-(2-hydroxyethyloxy)ethyl]aminomethyl-6H-pyrazolo[4,5,1-d,e]acridin-6-one]	> 133%
CN(C)CCCNCc1nn2c3cccc(O)c3c(=O)c3c(NCCCN(C)C)ccc1c32 [Compound 70, 5-(3-Dimethylaminopropyl)amino-2-(3-dimethylaminopropyl)aminomethyl-7-hydroxy-6H-pyrazolo[4,5,1-d,e]acridin-6-one]	> 112%

Same assay, conditions: P388, ip; dose 25 mg/kg, intraperitoneal, 24 hours after implantation, male CDF1 mouse

Compound	ILS at 25 mg/kg
NCCCNCc1nn2c3ccccc3c(=O)c3c(NCCCN)ccc1c32 [Compound 22, 5-(3-Aminopropyl)amino-2-(3-aminopropyl)aminomethyl-6H-pyrazolo[4,5,1-d,e]acridin-6-one]	52%
COc1cccc2c1c(=O)c1c(NCCN)ccc3c(CNCCN)nn2c31 [Compound 25, 5-(2-Aminoethyl)amino-2-(2-aminoethyl)aminomethyl-7-methoxy-6H-pyrazolo[4,5,1-d,e]acridin-6-one]	39%
COc1cccc2c1c(=O)c1c(NCCCN)ccc3c(CNCCCN)nn2c31 [Compound 26, 5-(3-Aminopropyl)amino-2-(3-aminopropyl)aminomethyl-7-methoxy-6H-pyrazolo[4,5,1-d,e]acridin-6-one]	28%

Same assay, conditions: P388, ip; dose 37.5 mg/kg, intraperitoneal, 24 hours after implantation, male CDF1 mouse

Compound	ILS at 37.5 mg/kg
NCCNCc1nn2c3ccccc3c(=O)c3c(NCCN)ccc1c32 [Compound 21, 5-(2-Aminoethyl)amino-2-(2-aminoethyl)aminomethyl-6H-pyrazolo[4,5,1-d,e]acridin-6-one]	50%

Same assay, conditions: P388, ip; dose 50 mg/kg, intraperitoneal, 24 hours after implantation, male CDF1 mouse

Compound	ILS at 50 mg/kg
CN(C)CCNCc1nn2c3ccccc3c(=O)c3c(NCCN(C)C)ccc1c32 [Compound 23, 5-(2-Dimethylaminoethyl)amino-2-(2-dimethylaminoethyl)aminomethyl-6H-pyrazolo[4,5,1-d,e]acridin-6-one]	46%
CN(C)CCNCc1nn2c3cccc(O)c3c(=O)c3c(NCCN(C)C)ccc1c32 [Compound 30, 5-(2-Dimethylaminoethyl)amino-2-(2-dimethylaminoethyl)aminomethyl-7-hydroxy-6H-pyrazolo[4,5,1-d,e]acridin-6-one]	61%

Same assay, conditions: P388, ip; dose 75 mg/kg, intraperitoneal, 24 hours after implantation, male CDF1 mouse

Compound	ILS at 75 mg/kg
O=c1c2c(O)cccc2n2nc(CNCCO)c3ccc(Br)c1c32 [Compound 67, 5-Bromo-7-hydroxy-2-(2-hydroxyethyl)aminomethyl-6H-pyrazolo[4,5,1-d,e]acridin-6-one]	31%

Same assay, conditions: P388, ip; dose 4-6 mg/kg, intraperitoneal, 24 hours after implantation, male CDF1 mouse

Compound	ILS at 4 mg/kg
CO[C@@]12[C@H](COC(N)=O)C3=C(C(=O)C(C)=C(N)C3=O)N1C[C@@H]1N[C@@H]12 [Mitomycin C, reference compound]	57 to 67%

Same assay, conditions: dose 18.8 mg/kg, intraperitoneal, 24 hours after implantation, male CDF1 mouse

Compound	ILS (%)
O=c1c2ccccc2n2nc(CN(CCCl)CCCl)c3cccc1c32 [Compound 9, 2-Bis(2-chloroethyl)aminomethyl-6H-pyrazolo[4,5,1-d,e]acridin-6-one]	28%

System: human cancer cells (HeLaS3)
Experiment: Inhibitory effect on growth of human cancer cells (HeLaS3)
Format: cell-based
Conditions: 72 hours at 37° C., Neutral Red staining, 550 nm
Experimental: Inhibitory effect on growth of human cancer cells (HeLaS3):
HeLaS, cells were suspended in a medium comprising MEM medium (Nissui Pharmaceutical Co., Ltd.) and 2 mM glutamine (hereinafter referred to as Medium A) to a concentration of 3×10^4 cells/ml. The cell suspension thus prepared was put into wells of a 96-well microtiter plate in an amount of 0.1 ml/well. The cells on the plate were incubated in a CO2 -incubater at 37° C. for 20 hours, and 0.05 ml of a sample containing a test compound and appropriately diluted with Medium A was added to each well. The cells were further incubated in the CO2 -incubater at 37° C. for 72 hours. After the culture supernatant was removed, a medium comprising Medium A and 0.02% Neutral Red was added to the residue in an amount of 0.1 ml/well, followed by incubation at 37° C. for one hour in the CO2 -incubater, whereby the cells were stained. The culture supernatant was removed and the residue was washed once with physiological saline solution. The pigment was extracted with 0.001 N-HCl/30%-ethanol, and the absorbance was determined at 550 nm with a microplate reader. The absorbance determined for intact cells was compared with that for the cells treated with the test compound of a known concentration, and the concentration of the test compound for inhibiting 50% growth of the cells (IC50) was calculated.

Compound	IC50
O=c1c2ccccc2n2nc(CN(CCCl)CCCl)c3cccc1c32 [Compound 9, 2-Bis(2-chloroethyl)aminomethyl-6H-pyrazolo[4,5,1-d,e]acridin-6-one]	0.92 µg/mL (≈ 2.46 µM)

Same assay, conditions: Homo sapiens, HeLa S3, 72 hours at 37° C., Neutral Red staining, 550 nm, read-out: IC50

Compound	IC50
COc1cccc2c1C(=O)c1c(O)c3c(c(O)c1C2=O)C[C@@](O)(C(=O)CO)C[C@@H]3O[C@H]1C[C@H](N)[C@H](O)[C@H](C)O1 [Adriamycin, reference compound]	0.009 to 0.05 µg/mL (≈ 0.0166 to 0.092 µM)
CN(C)CCNC(=O)c1nn2c3ccccc3c(=O)c3cccc1c32 [Compound 3, 2-(2-Dimethylaminoethyl)aminocarbonyl-6H-pyrazolo[4,5,1-d,e]acridin-6-one]	2.5 µg/mL (≈ 7.48 µM)
COc1cccc2c1c(=O)c1cccc3c(C(=O)NCCN(C)C)nn2c31 [Compound 4, 7-Methoxy-2-(2-dimethylaminoethyl)aminocarbonyl-6H-pyrazolo[4,5,1-d,e]acridin-6-one]	2.98 µg/mL (≈ 8.18 µM)
O=C(NCCN1CCOCC1)c1nn2c3ccccc3c(=O)c3cccc1c32 [Compound 5, 2-(2-Morpholinoethyl)aminocarbonyl-6H-pyrazolo[4,5,1-d,e]acridin-6-one]	7.2 µg/mL (≈ 19.1 µM)
O=c1c2ccccc2n2nc(CN(CCO)CCO)c3cccc1c32 [Compound 7, 2-Bis(2-hydroxyethyl)aminomethyl-6H-pyrazolo[4,5,1-d,e]acridin-6-one]	8.89 µg/mL (≈ 26.4 µM)
O=c1c2ccccc2n2nc(CNCCN3CCOCC3)c3cccc1c32 [Compound 8, 2-(2-Morpholinoethyl)aminomethyl-6H-pyrazolo[4,5,1-d,e]acridin-6-one]	4.9 µg/mL (≈ 13.5 µM)
Cc1nn2c3ccccc3c(=O)c3c(N)ccc1c32 [Compound 11, 5-Amino-2-methyl-6H-pyrazolo[4,5,1-d,e]acridin-6-one]	2.16 µg/mL (≈ 8.67 µM)
NCCNCc1nn2c3ccccc3c(=O)c3c(N)ccc1c32 [Compound 15, 5-Amino-2-(2-aminoethyl]aminomethyl-6H-pyrazolo[4,5,1-d,e]acridin-6-one]	0.71 µg/mL (≈ 2.31 µM)
Nc1ccc2c(CNCCNCCO)nn3c4ccccc4c(=O)c1c23 [Compound 16, 5-Amino-2-[2-(2-hydroxyethylamino)ethyl]aminomethyl-6H-[4,5,1-d,e]acridin-6-one]	0.87 µg/mL (≈ 2.48 µM)
Nc1ccc2c(CNCCN3CCOCC3)nn3c4ccccc4c(=O)c1c23 [Compound 17, 5-Amino-2-(2-morpholinoethyl)aminomethyl-6H-[4,5,1-d,e]-acridin-6-one]	1.96 µg/mL (≈ 5.19 µM)
NCCCNCc1nn2c3ccccc3c(=O)c3c(NCCCN)ccc1c32 [Compound 22, 5-(3-Aminopropyl)amino-2-(3-aminopropyl)aminomethyl-6H-pyrazolo[4,5,1-d,e]acridin-6-one]	0.078 µg/mL (≈ 0.206 µM)
COc1cccc2c1c(=O)c1c(NCCCN)ccc3c(CNCCCN)nn2c31 [Compound 26, 5-(3-Aminopropyl)amino-2-(3-aminopropyl)aminomethyl-7-methoxy-6H-pyrazolo[4,5,1-d,e]acridin-6-one]	0.22 µg/mL (≈ 0.539 µM)
NCCCNCc1nn2c3cccc(O)c3c(=O)c3c(NCCCN)ccc1c32 [Compound 29, 5-(3-Aminopropyl)amino-2-(3-aminopropyl)aminomethyl-7-hydroxy-6H-pyrazolo[4,5,1-d,e]acridin-6-one]	0.014 µg/mL (≈ 0.0355 µM)

The next lines start with the values.

IC50	Compound
1.16 µg/mL (≈ 2.85 µM)	CNCCCNCc1nn2c3ccccc3c(=O)c3c(NCCCNC)ccc1c32 [Compound 32, 5-(3-Methylaminopropyl)amino-2-(3-methylaminopropyl)aminomethyl-6H-pyrazolo[4,5,1-d,e]acridin-6-one]
2.69 µg/mL (≈ 7.11 µM)	CNCCNCc1nn2c3ccccc3c(=O)c3c(NCCNC)ccc1c32 [Compound 33, 5-(2-Methylaminoethyl)amino-2-(2-methylaminoethyl)aminomethyl-6H-pyrazolo[4,5,1-d,e]acridin-6-one]
1.72 µg/mL (≈ 4.23 µM)	CCNCCNCc1nn2c3ccccc3c(=O)c3c(NCCNCC)ccc1c32 [Compound 34, 5-(2-Ethylaminoethyl)amino-2-(2-ethylaminoethyl)aminomethyl-6H-pyrazolo[4,5,1-d,e]acridin-6-one]
3.37 µg/mL (≈ 6.87 µM)	O=c1c2ccccc2n2nc(CNCCN3CCOCC3)c3ccc(NCCN4CCOCC4)c1c32 [Compound 35, 5-(2-Morpholinoethyl)amino-2-(2-morpholinoethyl)aminomethyl-6H-pyrazolo[4,5,1-d,e]acridin-6-one]
3.1 µg/mL (≈ 6.7 µM)	CCN(CC)CCNCc1nn2c3ccccc3c(=O)c3c(NCCN(CC)CC)ccc1c32 [Compound 36, 5-(2-Diethylaminoethyl)amino-2-(2-diethylaminoethyl)aminomethyl-6H-pyrazolo[4,5,1-d,e]acridin-6-one]
2.11 µg/mL (≈ 5.19 µM)	NCCCCNCc1nn2c3ccccc3c(=O)c3c(NCCCCN)ccc1c32 [Compound 37, 5-(4-Aminobutyl)amino-2-(4-aminobutyl)aminomethyl-6H-pyrazolo[4,5,1-d,e]acridin-6-one]
2.89 µg/mL (≈ 7.64 µM)	CNCCNc1ccc2c(CN(C)CCN)nn3c4ccccc4c(=O)c1c23 [Compound 38, 2-[N-(2-aminoethyl)-N-methyl]aminomethyl-5-(2-methylaminoethyl)amino-6H-pyrazolo[4,5,1-d,e]acridin-6-one]
8.33 µg/mL (≈ 19.2 µM)	CN(C)CCCNCc1nn2c3ccccc3c(=O)c3c(NCCCN(C)C)ccc1c32 [Compound 39, 5-(3-Dimethylaminopropyl)amino-2-(3-dimethylaminopropyl)aminomethyl-6H-pyrazolo[4,5,1-d,e]acridin-6-one]
0.12 µg/mL (≈ 0.274 µM)	CN(C)CCNCc1nn2c3cccc(O)c3c(=O)c3c(NCCNCCO)ccc1c32 [Compound 42]
0.0023 µg/mL (≈ 0.00559 µM)	NCCNc1ccc2c(CNCCOCCO)nn3c4cccc(O)c4c(=O)c1c23 [Compound 62, 5-(2-Aminoethyl)amino-7-hydroxy-2-[2-(2-hydroxyethyloxy)ethyl]aminomethyl-6H-pyrazolo[4,5,1-d,e]acridin-6-one]
